Experimental data: US20260345555A1, “Compositions and Methods for Protecting Salivary Glands from Off-Target Radiation Damage” (University of Rochester, priority 2022, published 2026)

Key:
[1] = test system: COX-1; details: role: inhibitor; cited from earlier work
[2] = test system: irradiated salivary glands; details: literature; cited from earlier work
[3] = test system: Reduced glutathione in salivary gland cell clusters (SGm); assay: Glutathione assay in salivary gland tissue chip, 4 days post-radiation (15 Gy); also first screen of Selleck library at 100 μM; format: cell-based, mouse; details: for protection against glutathione level changes resulting from radiation: 50 μM; for hit in the drug screen: glutathione assay first screen, 100 μM; on Glutathione (radioprotection): key: +: radioprotection; ~: partial radioprotection; —: no radioprotection
Method in brief: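 Mouse submandibular gland cell clusters (20–100 μm) in PEG hydrogel on microbubble chips, cultured 4 days to form SGm, then dosed 30 min before and during 15 Gy irradiation and washed out 30 min after. Glutathione measured 4 days post-radiation; library compounds screened at 100 μM, hits matching 0 Gy levels.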

[4] = literature; cited from earlier work
[5] = test system: senescence-associated β-galactosidase in salivary gland cell clusters (SGm); assay: Cellular senescence assay (SPiDER-βGal) in salivary gland tissue chip, 5 days post-radiation (15 Gy); also second screen of library hits at 100 μM; format: cell-based, mouse; on Senescence (radioprotection): key: +: radioprotection; ~: partial radioprotection; —: no radioprotection
From the text: The chip platform consists of an array of near-spherical microbubble (MB) cavities formed in poly(dimethylsiloxane) (PDMS). Each chip, containing ~50 MBs, affixed within wells of a 96-well plate (FIG. 1C). Primary salivary gland cell clusters (FIG. 1A), suspended in a poly(ethylene glycol) (PEG) hydrogel precursor and MMP-degradable peptide crosslinker solution together with the photoinitiator LAP, were applied to the chip allowing the clusters to deposit into the MBs (FIG. 1D). In situ polymerization of the hydrogel was achieved using long-wave, low intensity UV light. Over time, the cell clusters aggregate and proliferate to form SGm (FIG. 1C).
For senescence, a protocol similar to the glutathione assay was followed to determine the optimal time point post-radiation for detecting a change in senescence between 0 Gy and 15 Gy, as measured by senescence-associated β-galactosidase activity.
The glutathione and senescence assays were used to screen a library of FDA-approved drugs (Selleck Chemicals) at 100 μM. Drugs were first screened using the glutathione assay according to the timeline depicted in FIG. 2A. […] Hits with the glutathione assay were then tested with the senescence assay and considered a “double hit” if senescence levels were statistically similar to levels at 0 Gy (FIG. 4, black circles).
Mice were euthanized and the submandibular glands (SMG) were removed and chopped with a razor blade for 5 min. […] Cells were centrifuged, then resuspended in HBSS with 15 mM HEPES and passed through 100 μm and 20 μm mesh filters to isolate clusters between 20-100 μm. […] The isolated clusters were combined with hydrogel precursor solution and seeded in MB array-based chips as described below.
The cell/gel precursor solution (25 μL for 48 well; 20 μL for 96 well) was pipetted onto the MB chips and incubated for 30 min, pipetting every 10 min to redisperse cells that had settled onto the surface of the chip.
A cellular senescence assay for the chips was developed by adapting the Cellular Senescence Detection Kit—SPiDER-βGal (Dojindo Molecular Technologies, Inc. SG04). Bafilomycin A1 and SPiDER-βGal stock solutions were prepared in DMSO per manufacturer directions. The assay was performed by first incubating the chips with bafilomycin A1 (1:1000 dilution in media) for 1 hr at 37 °C. […] Chips were washed twice with media and imaged using a fluorescence microscope with a Texas Red filter (Excitation: 580 nm; Emission: 604 nm).
For radioprotection experiments, SGm were cultured in MB-hydrogel chips for 4 days, then drugs were added to the chips 30 min prior to irradiation and washed out with media 30 min post-radiation treatment. […] The glutathione and senescence assays were performed at 4- and 5-days post-radiation. For assay validation experiments, at least 3 chips (N=3) were used for each drug, corresponding to >100 MBs (n>100); these values are listed in the figure description for each experiment. Mean, standard deviation, and statistics were calculated based on the number of MBs (n).
For screening of the Selleck Chemicals compound library, the same treatment scheme was used, with drugs administered at 100 μM. One MB chip (N=1) was used per compound, with ~40-50 MBs per chip […]; statistics were calculated using the number of MBs (n) and compared to 0 Gy controls.
For both the glutathione and cellular senescence assays, images were quantified in ImageJ.

[6] = test system: salivary flow rate; details: swine; cited from earlier work
[7] = in vivo; cited from earlier work
[8] = test system: p53-dependent and independent apoptosis; details: cited from earlier work
[9] = reason for exclusion from further testing; cited from earlier work
[10] = in vivo; cited from earlier work; remark: listed apart in the source
[11] = test system: lymphocyte cells; details: viability of lymphocytes as primary readout; cited from earlier work

COc1ccc2c(c1)c(CC(=O)O)c(C)n2C(=O)c1ccc(Cl)cc1 [Indomethacin]
COX-1 inhibition [1]: only blocks COX-1
mitigation of salivary gland damage [2]: mitigation of salivary gland damage
radioprotection in drug screen ([3]; 100 μM library screen): showed radioprotection
radioprotection in drug screen ([3]; concentrations lower than 100 μM): ineffective

CC1=NN(c2ccccc2)C(=O)C1 [Edaravone, 3-methyl-1-phenyl-2-pyrazoline-5-one]
radio-protective dose range [4]: 100 to 1000 µM
Senescence (radioprotection) ([5]; 100 μM): +
protection against radiation-induced senescence ([5]; 100 μM): protective
Senescence (radioprotection) ([5]; 1 mM): +
Senescence (radioprotection) ([5]; 4 mM): +
inhibition at 100 µM ([5]; Mus musculus, light or radiation study, 120 h, 100 μM, versus untreated, irradiated controls, read-out: reduction in senescence): 96%
inhibition at 1000 µM ([5]; Mus musculus, light or radiation study, 120 h, 1 mM, versus untreated, irradiated controls, read-out: reduction in senescence): 94%
inhibition at 4000 µM ([5]; Mus musculus, light or radiation study, 120 h, 4 mM, versus untreated, irradiated controls, read-out: reduction in senescence): 113%
radioprotection using the glutathione assay ([3]; 0.1 mM): partial radioprotection
glutathione levels maintained ([3]; 0.1 mM, 15 Gy): ~ 43%
Glutathione (radioprotection) ([3]; 1 mM): +
prevention of radiation-induced reduction of glutathione levels ([3]; 1 mM, 15 Gy, 4 days post-radiation): showed protection
prevention of radiation-induced reduction of glutathione levels ([3]; 4 mM, 15 Gy, 4 days post-radiation): not at 4 mM

CO[C@H]1C[C@@H]2CC[C@@H](C)[C@@](O)(O2)C(=O)C(=O)N2CCCC[C@H]2C(=O)O[C@H]([C@H](C)C[C@@H]2CC[C@@H](O)[C@H](OC)C2)CC(=O)[C@H](C)/C=C(\C)[C@@H](O)[C@@H](OC)C(=O)[C@H](C)C[C@H](C)/C=C/C=C/C=C/1C [Rapamycin]
Senescence (radioprotection) ([5]; 50 μM): +
protection against radiation-induced senescence ([5]; 50 μM, 15 Gy): complete protection
salivary flow rate post-radiation [6]: restore salivary flow rate post-radiation
protection against glutathione level changes resulting from radiation ([3]; 15 Gy): 58%

CCCSc1ccc2nc(NC(=O)OC)[nH]c2c1 [Albendazole (Albenza)]
bioavailability [7]: poor bioavailability

O=C(O)c1ccc(/C=C/S(=O)(=O)Cc2ccc(Cl)cc2)cc1 [Ex-Rad]
radioprotection (senescence) ([5]; 50 μM, 15 Gy): 45%
apoptosis [8]: reduce p53-dependent and independent apoptosis
protection against glutathione level changes resulting from radiation ([3]; 15 Gy): no effect observed

COC(=O)[C@@H]1CC2=CC(=O)CC[C@]2(C)[C@@]23O[C@@H]2C[C@@]2(C)[C@@H](CC[C@@]24CCC(=O)O4)[C@H]13 [Eplerenone]
solubility [9]: concerns with solubility

Cc1ccc(S(=O)(=O)NC(=O)NN2CC3CCCC3C2)cc1 (stereo not shown) [gliclazide]
antioxidant activity [4]: antioxidant activity
radioprotection [4]: radioprotectors

COc1ccc(Cl)cc1C(=O)NCCc1ccc(S(=O)(=O)NC(=O)NC2CCCCC2)cc1 [Glyburide]
radioprotection [4]: radioprotectors

CC(O)(P(=O)(O)O)P(=O)(O)O [Etidronate (Didronel)]
bioavailability [7]: poor bioavailability
Senescence normalized mean intensity ([5]; second screen of library hits at 100 μM, 15 Gy, 5 days post-radiation, only drugs nonsignificant compared to 0 Gy in the glutathione assay): 0.992
Glutathione normalized mean intensity ([3]; first screen of Selleck library at 100 μM, 15 Gy, 4 days post-radiation): 0.9486

NCCCNCCSP(=O)(O)O [amifostine]
adverse effects [10]: severe side effects, including nausea, vomiting, and hypotension

COc1c(N2CCNC(C)C2)c(F)cc2c(=O)c(C(=O)O)cn(C3CC3)c12 (stereo not shown) [gatifloxacin]
hit in the drug screen [3]: not hits
radioprotection of lymphocytes [11]: radioprotectors

C[C@H]1COc2c(N3CCN(C)CC3)c(F)cc3c(=O)c(C(=O)O)cn1c23 [levofloxacin]
hit in the drug screen [3]: not hits
radioprotection of lymphocytes [11]: radioprotectors
